Assay: Biodistribution / brain delivery of drug in mice after intravenous drug-loaded nanoparticles
Format: in vivo
Settings: mouse, BMS, 12 mg/kg intravenously through tail vein in mice, HPLC, mean±SD (n=6), read-out: drug levels in the brain
Protocol: The brain delivery of BMS was assessed one hour following intravenous administration of brain lipid-coated nanoparticles in mice (FIG. 1). BMS in nanoparticles with or without brain-derived lipids or equivalent amount in solution (12 mg/kg) was injected intravenously in mice through tail vein, and drug levels in different tissues at the end of 1 hr was analyzed by HPLC. Data as mean±SD (n=6). * p<0.05. […] Data as mean±SD (n=4 and 3). * p<0.05.

concentration at 1 h: 2360 ± 580 ng/g
SMILES: Cc1noc(NS(=O)(=O)c2cccc3c(N(C)C)cccc23)c1C [solution control, BMS 182874]
